Values belong to the compound of their own block, whether it stands above or below them.
Tests used:
Assay in all cases: hydroxylation, product quantified by HPLC-DAD ([…] nm)
Type in all cases: biochemical, Dahlia pinnata
Conditions in all cases: 1.55 mM NADPH, CrCPR microsomes, pH 7.5, 30 °C
[1] = system: T1, DvCH3H (chalcone 3-hydroxylase)
T1 construct: gene CH3H; assayed with yeast microsomes containing recombinant Catharanthus roseus CPR (GenBank X69791.1); with NADPH--cytochrome P450 reductase (Catharanthus roseus)

[2] = system: T1, DvCH3H (chalcone 3-hydroxylase); remark: listed apart in the source
[3] = system: T1, DvCH3H (chalcone 3-hydroxylase); remark: listed apart in the source

- Km [1]: 0.622 ± 0.069 µM
SMILES: O=c1c(O)c(-c2ccc(O)cc2)oc2cc(O)cc(O)c12 [Kaempferol]

- Km [2]: 0.329 ± 0.007 µM
SMILES: O=c1cc(-c2ccc(O)cc2)oc2cc(O)cc(O)c12 [Apigenin]

- Km ([3]; racemic mixture): 0.402 ± 0.046 µM
SMILES: O=C1CC(c2ccc(O)cc2)Oc2cc(O)cc(O)c21 (racemic) [Racemic Naringenin]

- Km [3]: 0.76 ± 0.094 µM
SMILES: O=C1C[C@@H](c2ccc(O)cc2)Oc2cc(O)cc(O)c21 [(2S)-Naringenin]

- Km [3]: 0.408 ± 0.015 µM
SMILES: O=C1C[C@H](c2ccc(O)cc2)Oc2cc(O)cc(O)c21 [(2R)-Naringenin]

From article PMC9122903, “First purified recombinant CYP75B including transmembrane helix with unexpected high substrate specificity to (2R)-naringenin” (Scientific Reports, 2022)
